For 3 compounds, Compatibility test results are on record in patent US9247732B2, “Agrochemical formulations containing a compatibility agent” (priority 2011, dated 2016).

The nature of this data set: Tank-mix compatibility test of dodine 400 SC with another pesticide or adjuvant. To be noted: dodine 400 SC 1.25 l/200 l water plus other pesticide or adjuvant, observed after mixing for 30 minutes. The format is physicochemical. How it is done:
Test protocols for evaluating the compatibility of pesticide active ingredients and adjuvants are readily available and known to a person skilled in the art. A method suitable for use in the present invention is as follows: fill a 250 ml beaker with 200 ml of well water (temperature 15-17° C., water hardness 8° dH corresponding to 80 mg calcium oxide/l). […] Add a magnetic stirrer to the beaker. Stir the suspension for approximately 5 minutes at a speed of rotation of 700 rotations per minute. Add a mixing partner, such as an adjuvant or second plant protection product to the suspension. Stir the suspension for an additional 15 minutes. Stop stirring when a total stirring time of 20 minutes is obtained. Let the suspension stand unstirred for a few minutes. Then check for any separation, sediment, crystallization or flocculation. Note down the results of the visual observation. Stir the suspension for a further 20 minutes. Stop the stirring. After 2 hours have lapsed assess the compatibility for a second time. Upon finishing the second observation, pour the whole suspension over a 100 μm sieve. Note down if residue is present on the sieve.
Tank-mixes comprising dodine without acetate were prepared. […] Mixing was stopped.
As a comparison, the same tank-mixes were prospered, this time comprising dodine with acetate (A′-E′). […] Mixing was stopped after 30 minutes.

Setting [1] is: with sodium acetate 0.36 kg/200 l.

With `Cc1cc(C)nc(Nc2ccccc2)n1` [pyrimethanil, N-(4,6-dimethylpyrimidin-2-yl)aniline], the Compatibility test entry is “improved the compatibility” under setting [1] and “not possible due to incompatibility problems” (without compatibility agent).

On to `CCC(C)(C)C(=O)OC1=C(c2ccc(Cl)cc2Cl)C(=O)OC12CCCCC2` [spirodiclofen], for which the Compatibility test entry under setting [1] was “improved the compatibility” and the Compatibility test result (without compatibility agent) is listed as “not possible due to incompatibility problems”.

Take `COc1cccc(C(=O)NN(C(=O)c2cc(C)cc(C)c2)C(C)(C)C)c1C` [methoxyfenozide, benzoic acid, 3-methoxy-2-methyl-, 2-(3,5-dimethylbenzoyl)-2-(1,1-dimethylethyl)hydrazide]: the Compatibility test entry under setting [1] is “improved the compatibility” and the Compatibility test result (without compatibility agent) was “not possible due to incompatibility problems”.
